Measured values taken from US10966978B2, “Dose and regimen for HDM2-p53 interaction inhibitors” (Novartis AG, priority 2016, dated 2021).
Like-named read-outs stand apart in the source and are kept apart here.

Tested on: patients with advanced TP53 wild-type (WT) leukemias
Text: Patients with Ph+ ALL who show early markers of relapse in MRD surveillance can be considered for inclusion as long as other therapies such as TKIs are exhausted or cannot be given. • Tumor of the patient is TP53 wt characterized by, at a minimum, no mutations in exons 5, 6, 7 and 8, and the p53 status was obtained from a bone-marrow sample, collected no longer than 3 months before signing the main ICF. Safety and Tolerability Profile of Regimen 1B in Hematological Tumors

COc1ncc(-c2nc3c(n2C(C)C)[C@H](c2ccc(Cl)cc2)N(c2cc(Cl)cn(C)c2=O)C3=O)c(OC)n1 [HDM201, (S)-5-(5-Chloro-1-methyl-2-oxo-1,2-dihydro-pyridin-3-yl)-6-(4-chloro-phenyl)-2-(2,4-dimethoxy-pyrimidin-5-yl)-1-isopropyl-5,6-dihydro-1H-pyrrolo[3,4-d]imidazol-4-one]
25 (67.6) n (%): AE: Total (All subjects N = 37, Grade 3/4)
2 (5.4) n (%): AE: Hypophosphataemia (All subjects N = 37, Grade 3/4) | AE: Leukopenia (All subjects N = 37, Grade 3/4) | AE: Lipase Increased (All subjects N = 37, Grade 3/4) | AE: Pancytopenia (All subjects N = 37, Grade 3/4)
11 (29.7) n (%): AE: Febrile Neutropenia (All subjects N = 37, Grade 3/4) | AE: Neutropenia/Neutrophil Count Decreased (All subjects N = 37, Grade 3/4)
9 (24.3) n (%): AE: Tumour Lysis Syndrome (All subjects N = 37, Grade 3/4)
6 (37.5) n (%): AE: Anaemia (Regimen 1A N = 16, All Grades)
3 (8.1) n (%): AE: White Blood Cell Count Decreased (All subjects N = 37, Grade 3/4)
0 n (%): AE: Atypical Pneumonia (All subjects N = 37, Grade 3/4) | AE: Balanitis Candida (All subjects N = 37, Grade 3/4) | AE: Blood Alkaline Phosphatase Increased (All subjects N = 37, Grade 3/4) | AE: Blood Bilirubin Increased (All subjects N = 37, Grade 3/4) | AE: Blood Phosphorus Increased (All subjects N = 37, Grade 3/4) | AE: Cardiac Failure (All subjects N = 37, Grade 3/4) | AE: Conjunctival Haemorrhage (All subjects N = 37, Grade 3/4) | AE: Constipation (All subjects N = 37, Grade 3/4) | AE: Cough (All subjects N = 37, Grade 3/4) | AE: Cystitis Viral (All subjects N = 37, Grade 3/4) | AE: Cytomegalovirus Infection (All subjects N = 37, Grade 3/4) | AE: Decreased Appetite (All subjects N = 37, Grade 3/4) | AE: Diarrhoea (All subjects N = 37, Grade 3/4) | AE: Dyspepsia (All subjects N = 37, Grade 3/4) | AE: Epistaxis (All subjects N = 37, Grade 3/4) | AE: Fatigue (All subjects N = 37, Grade 3/4) | AE: General Physical Health Deterioration (All subjects N = 37, Grade 3/4) | AE: Gingival Bleeding (All subjects N = 37, Grade 3/4) | AE: Graft Versus Host Disease (All subjects N = 37, Grade 3/4) | AE: Haemoglobin Decreased (All subjects N = 37, Grade 3/4) | AE: Headache (All subjects N = 37, Grade 3/4) | AE: Hyperbilirubinaemia (All subjects N = 37, Grade 3/4) | AE: Hyperglycaemia (All subjects N = 37, Grade 3/4) | AE: Hyperphosphataemia (All subjects N = 37, Grade 3/4) | AE: Hypoalbuminaemia (All subjects N = 37, Grade 3/4) | AE: Hypocalcaemia (All subjects N = 37, Grade 3/4) | AE: Hypokalaemia (All subjects N = 37, Grade 3/4) | AE: Hypomagnesaemia (All subjects N = 37, Grade 3/4) | AE: Hyponatraemia (All subjects N = 37, Grade 3/4) | AE: Hypotension (All subjects N = 37, Grade 3/4) | AE: Infective Glossitis (All subjects N = 37, Grade 3/4) | AE: Iron Overload (All subjects N = 37, Grade 3/4) | AE: Lip Oedema (All subjects N = 37, Grade 3/4) | AE: Malaise (All subjects N = 37, Grade 3/4) | AE: Mouth Haemorrhage (All subjects N = 37, Grade 3/4) | AE: Nausea (All subjects N = 37, Grade 3/4) | AE: Oedema (All subjects N = 37, Grade 3/4) | AE: Oedema Peripheral (All subjects N = 37, Grade 3/4) | AE: Oral Disorder (All subjects N = 37, Grade 3/4) | AE: Pain In Extremity (All subjects N = 37, Grade 3/4) | AE: Pneumonia (All subjects N = 37, Grade 3/4) | AE: Pollakiuria (All subjects N = 37, Grade 3/4) | AE: Pyrexia (All subjects N = 37, Grade 3/4) | AE: Rash (All subjects N = 37, Grade 3/4) | AE: Rash Erythematous (All subjects N = 37, Grade 3/4) | AE: Rash Papular (All subjects N = 37, Grade 3/4) | AE: Rectal Haemorrhage (All subjects N = 37, Grade 3/4) | AE: Skin Exfoliation (All subjects N = 37, Grade 3/4) | AE: Vomiting (All subjects N = 37, Grade 3/4) | AE: Weight Decreased (All subjects N = 37, Grade 3/4) | AE: Bone Marrow Failure (Regimen 1A N = 16, All Grades) | AE: Cellulitis (Regimen 1A N = 16, All Grades) | AE: Constipation (Regimen 1A N = 16, All Grades) | AE: Cytomegalovirus Infection (Regimen 1A N = 16, All Grades) | AE: Epistaxis (Regimen 1A N = 16, All Grades)
3 (18.8) n (%): AE: Amylase Increased (Regimen 1A N = 16, All Grades)
4 (25.0) n (%): AE: Decreased Appetite (Regimen 1A N = 16, All Grades) | AE: Diarrhoea (Regimen 1A N = 16, All Grades)
2 (12.5) n (%): AE: Abdominal Pain (Regimen 1A N = 16, All Grades) | AE: Asthenia (Regimen 1A N = 16, All Grades) | AE: Atrial Fibrillation (Regimen 1A N = 16, All Grades)
1 (6.3) n (%): AE: Abdominal Discomfort (Regimen 1A N = 16, All Grades) | AE: Abdominal Pain Upper (Regimen 1A N = 16, All Grades) | AE: Acute Kidney Injury (Regimen 1A N = 16, All Grades) | AE: Arthralgia (Regimen 1A N = 16, All Grades) | AE: Atypical Pneumonia (Regimen 1A N = 16, All Grades) | AE: Balanitis Candida (Regimen 1A N = 16, All Grades) | AE: Blood Alkaline Phosphatase Increased (Regimen 1A N = 16, All Grades) | AE: Blood Bilirubin Increased (Regimen 1A N = 16, All Grades) | AE: Blood Creatinine Increased (Regimen 1A N = 16, All Grades) | AE: Blood Phosphorus Increased (Regimen 1A N = 16, All Grades) | AE: Blood Uric Acid Increased (Regimen 1A N = 16, All Grades) | AE: C-Reactive Protein Increased (Regimen 1A N = 16, All Grades) | AE: Cardiac Failure (Regimen 1A N = 16, All Grades) | AE: Chronic Graft Versus Host Disease (Regimen 1A N = 16, All Grades) | AE: Conjunctival Haemorrhage (Regimen 1A N = 16, All Grades) | AE: Cough (Regimen 1A N = 16, All Grades) | AE: Cystitis Viral (Regimen 1A N = 16, All Grades) | AE: Dyspepsia (Regimen 1A N = 16, All Grades) | AE: Dyspnoea (Regimen 1A N = 16, All Grades)
18 (48.6) n (%): AE: Thrombocytopenia/Platelet Count Decreased (All subjects N = 37, Grade 3/4)
1 (2.7) n (%): AE: Blood Creatinine Increased (All subjects N = 37, Grade 3/4) | AE: Blood Uric Acid Increased (All subjects N = 37, Grade 3/4) | AE: Bone Marrow Failure (All subjects N = 37, Grade 3/4) | AE: C-Reactive Protein Increased (All subjects N = 37, Grade 3/4) | AE: Cellulitis (All subjects N = 37, Grade 3/4) | AE: Chronic Graft Versus Host Disease (All subjects N = 37, Grade 3/4) | AE: Dyspnoea (All subjects N = 37, Grade 3/4) | AE: Gamma-Glutamyltransferase Increased (All subjects N = 37, Grade 3/4) | AE: Hyperkalaemia (All subjects N = 37, Grade 3/4) | AE: Hyperuricaemia (All subjects N = 37, Grade 3/4) | AE: Infection (All subjects N = 37, Grade 3/4) | AE: Macular Oedema (All subjects N = 37, Grade 3/4) | AE: Renal Failure (All subjects N = 37, Grade 3/4) | AE: Stomatitis (All subjects N = 37, Grade 3/4) | AE: Subarachnoid Haemorrhage (All subjects N = 37, Grade 3/4)
